Patent US11958842B2, “Substituted phenazines and methods of treating cancer and bacterial diseases” (Adjutec Pharma AS, priority 2016, dated 2024)
Converted amounts (≈) assume the structure as drawn. Read-outs that look alike come from different tables or passages of the source. Marks after values point to notes of the source that are not given here.

Tests used:
IPC-81 rat AML cells = test: Anti-AML activity, WST-1 viability (Example 72); assay type: cell-based
Procedure, shortened: (§1)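 Rat IPC-81 cells in DMEM with 10% horse serum and Molm13 cells in RPMI with 10% FBS, seeded at 150 000 cells/ml with compound dilution series. After 22 h exposure, WST-1 added for a further 2 h; absorbance read at 450 nm (620 nm reference) as viability.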

Molm13 cells = test: Anti-AML activity, WST-1 viability (Example 72); assay type: cell-based; details: Homo sapiens, Molm 13 cells, WST-1
Procedure, shortened: as §1

[1] = test system: human acute myeloid leukemia cell line MOLM-13; test: Cytotoxicity, WST-1 and nuclear morphology (Example 73); assay type: cell-based
Procedure, shortened: (§2)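 MOLM-13 (RPMI/FBS), NRK and H9c2 (DMEM/10% FBS) cells under 2% or 20% O2 at 37° C were exposed to analogues for 24 h (≤1% DMSO). Viability was read by WST-1, and cell death by Hoechst 33342 nuclear morphology; EC50 came from four-parameter regression.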

[2] = test system: normal rat kidney epithelial (NRK) cells; test: as above; assay type: cell-based; details: Rattus norvegicus
Procedure, shortened: as §2

[3] = test system: rat cardiomyoblast (H9c2) cells; test: as above; assay type: cell-based; details: H9c2, 19% O2, 24 hours of incubation, read-out: EC50 (μM) H9c2 19% O2
Procedure, shortened: as §2

hepG2 = test: Cytotoxicity (Example 73, Table 2); assay type: cell-based; details: Homo sapiens, read-out: EC50 (μM) hepG2
[4] = Parallel artificial membrane permeability assay (PAMPA); details: PAMPA, 50 μM in PBS, room temperature, five hours
Protocol: The Corning Gentest™ pre-Coated parallel artificial membrane permeability assay PAMPA Plate System was from Cording Discovery Labware (Bedford, USA). The compounds were tested in room temperature at 50 μM using PBS as buffer. A total of 300 μl of the compound solution was added to each well of the donor plate, and 200 μl of PBS was added to the receiver filter plate. After incubation for five hours, 50 μl of the donor or acceptor well were injected into a reversed phase HPLC column (Kromasil 100-5 C18 150-4.6 mm, Akzo Nobel, Sweden) connected to a Merck-Hitachi LaChrome HPLC-system (VWR, WestChester, USA) with a L-7455 diode array detector. Mobile phase A was 0.05% aqueous TFA, and mobile phase B was acetonitrile. The flow rate was 1.6 ml/min and compounds eluted between 1 and 4.5 minutes was eluted during a 6.5 min gradient from 90:10% mobile phase A:B to 0:100% mobile phase A:B. The ratio of the compound concentrations in the donor and acceptor compartment was calculated after integration of the peaks at 285 nm. Peff was calculated as described in [Bennion B J, Be N A, McNerney M W, Lao V, Carlson E M, Valdez C A, et al. Predicting a Drug's Membrane Permeability: A Computational Model Validated With in Vitro Permeability Assay Data. The journal of physical chemistry B. 2017; 121(20):5228-37.]. Membrane permeability were classified by the range defined by Bennion et al., allowing for us to divide the compounds into four groups, compounds with high permeability (LogPeff>−5.33), intermediate permeability (LogPeff>−5.66 and <−5.33), low permeability (LogPeff>−6.14 and <−5.66) impermeable (LogPeff<−6.14).

[5] = all solvents; background statement; cited from earlier work
[6] = test system: methicillin-resistant S. aureus MRSA A4-37; test: Microbroth dilution MIC; assay type: cell-based; details: compound alone
Protocol: (§3) Day 1: • Plate bacterial strain(s) on appropriate media: • Gram-negative bacteria with ESBLs or carbapenemases: green agar plates with 100 mg/L ampicillin • Gram-negative bacteria without β-lactamases: green agar plates • Gram-positive bacteria (Staphylococci and Enterococci): blood agar plates • Incubate o.n. at 37° C.
(§4) Prepare the Bacterial Inoculum: • Prepare a 0.5 McFarland suspension of bacteria in 0.85% NaCl. (Should be used within 15 min of preparation). • Dilute the 0.5 McFarland suspension 1:100 into MH broth.
(§5) Check the inoculum by diluting the prepared bacterial suspension 1:100 (10 μl bacterial suspension+990 μl 0.85% NaCl). Plate 10 μl of the dilution on MH agar plates (×2). Incubate o.n. at 37° C., count the colonies and calculate the final CFU/ml inoculum in the plate by multiplying the average number of colonies with 10000 and divide by 2. The final inoculum should be between 3-7×10^5 CFU/ml. • Add 50 μl of the prepared bacterial suspension to each well in the microtiter plate except negative growth control.
(§6) Preparation of Compounds/Antibiotics • Calculate the desired concentration-range and volume of the compounds/antibiotics in the assay. For antibiotics this will depend on the MIC to meropenem of the bacterial strains to be tested. Dilute the stock solution in MH broth. Make subsequent 2-fold dilutions in MH broth of the desired concentrations if a concentration range is to be tested (remember the extra dilution factor in the assay plate). Always include extra volume for pipetting. Take into consideration stock solutions that are made in buffers that have an effect on bacterial growth (e.g. DMSO).
(§7) This experimental design was used for the results in Tables 4 and 5 below. In Table 4, inhibitor concentration dependency on the MIC of meropenem was studied.

[7] = test system: vancomycin-resistant E. faecium vanA A1-22; test: Microbroth dilution MIC; assay type: cell-based; details: compound alone
Protocol: as §3, §4, §5, §6, §7

A.baumannii/OXA-23 = test: Microbroth dilution MIC; assay type: cell-based; details: Acinetobacter baumannii; S7 A.baumannii/OXA-23; substance alone
Protocol: as §3, §4, §5, §6, §7

E. coli/OXA-48 = test: Microbroth dilution MIC; assay type: cell-based; details: Escherichia coli, read-out: MIC alone
Protocol: as §3, §4, §5, §6, §7

K. pneumoniae/KPC-2 = test: Microbroth dilution MIC; assay type: cell-based; details: Klebsiella pneumoniae; S6 K. pneumoniae/KPC-2; substance alone
Protocol: as §3, §4, §5, §6, §7

K. pneumoniae/NDM-1 = test: Microbroth dilution MIC; assay type: cell-based; details: Klebsiella pneumoniae; S4 K. pneumoniae/NDM-1; substance alone
Protocol: as §3, §4, §5, §6, §7

P. aeruginosa/VIM-2 = test: Microbroth dilution MIC; assay type: cell-based; details: Pseudomonas aeruginosa, read-out: MIC alone
Protocol: as §3, §4, §5, §6, §7

K. pneumoniae (17A2) = test: Microbroth dilution MIC; assay type: cell-based; details: Klebsiella pneumoniae; S2 K. pneumoniae (17A2), lacking metallo-β-lactamase; substance alone
Protocol: as §3, §4, §5, §6, §7

P. aeruginosa (16H5) = test: Microbroth dilution MIC; assay type: cell-based; details: Pseudomonas aeruginosa; S1 P. aeruginosa (16H5), lacking metallo-β-lactamase; substance alone
Protocol: as §3, §4, §5, §6, §7

[8] = 2% O2, 24 h of incubation, read-out: Molm 13 IC50 2% O2
[9] = 20% O2, 24 h of incubation, read-out: Molm 13 IC50 20% O2
[10] = Homo sapiens, MOLM-13, 2% O2, 24 hours of incubation, read-out: EC50 (μM) MOLM-13 2% O2
[11] = Homo sapiens, MOLM-13, 19% O2, 24 hours of incubation, read-out: EC50 (μM) MOLM-13 19% O2
[12] = 2% O2, 24 hours of incubation, read-out: EC50 (μM) NRK 2% O2
[13] = 19% O2, 24 hours of incubation, read-out: EC50 (μM) NRK 19% O2

SMILES | IC50 (Molm13 cells; [8]) | IC50 (Molm13 cells; [9]) | EC50 [1, 10] | EC50 [1, 11] | EC50 [2, 12] | EC50 [2, 13] | EC50 ([3]; Rattus norvegicus) | EC50 (hepG2; hepG2, 24 hours of incubation) | MIC A4-37 S. aureus MRSA [6] | MIC A1-22 E. faecium vanA [7] | also measured
[O-][n+]1c2cccc(O)c2[n+]([O-])c2cccc(O)c21 [Example 1c, 1,6-dihydroxyphenazine 5,10-dioxide, reference compound] | 270 nM | 300 nM | 0.79 ± 0.1 µM | 2 ± 0.07 µM | > 50 µM | > 50 µM | > 50 µM | > 250 µM | – | – | IC50 (IPC-81 rat AML cells; IPC81, 24 h, read-out: IPC-81 IC50 2% O2): 510 nM; IC50 (IPC-81 rat AML cells; IPC81, 24 h, read-out: IPC-81 IC50 20% O2): 1300 nM; LogPeff [4]: −5.46*; solubility [5]: practically insoluble in all solvents
CC(C)(C)OC(=O)COc1cccc2c1[n+]([O-])c1cccc(O)c1[n+]2[O-] [Example 5b, 1-(2-(tert-butoxy)-2-oxoethoxy)-6-hydroxyphenazine 5,10-dioxide] | 1650 nM | 1770 nM | 2.4 ± 0.16 µM | 2.9 ± 0.34 µM | 53 µM | 53 ± 1.5 µM | 42 ± 5.8 µM | – | < 0.5 µg/mL | 8 µg/mL (≈ 22.3 µM) | LogPeff [4]: −5.33
COc1cccc2c1[n+]([O-])c1cccc(OC(C)=O)c1[n+]2[O-] [Example 5e, 1-Acetoxy-6-methoxyphenazine 5,10-dioxide] | 1450 nM | 1500 nM | – | – | – | – | – | – | – | – | IC50 (IPC-81 rat AML cells; IPC81, IPC-81 cells, 2% O2, 24 h of incubation, WST-1, read-out: IPC-81 IC50 2% O2): 1700 nM; IC50 (IPC-81 rat AML cells; IPC81, IPC-81 cells, 20% O2, 24 h of incubation, WST-1, read-out: IPC-81 IC50 20% O2): 1800 nM
CCOC(=O)COc1cccc2c1[n+]([O-])c1ccccc1[n+]2[O-] [Example 6a, 1-(2-ethoxy-2-oxoethoxy)phenazine 5,10-dioxide] | – | 110 nM | 1.7 ± 0.29 µM | 1.5 ± 0.14 µM | 25 ± 0.2 µM | 26 ± 0.8 µM | 20 ± 2.9 µM | 75 µM | < 0.5 µg/mL | 4 µg/mL (≈ 12.7 µM) | MIC (A.baumannii/OXA-23): 5 µg/mL (≈ 15.9 µM); MIC (E. coli/OXA-48): 2.5 µg/mL (≈ 7.95 µM); MIC (K. pneumoniae/KPC-2): 9.7 µg/mL (≈ 30.9 µM); MIC (K. pneumoniae/NDM-1): 19.6 µg/mL (≈ 62.4 µM); MIC (P. aeruginosa/VIM-2): 39.3 µg/mL (≈ 125 µM)
CCOC(=O)COc1cccc2c1[n+]([O-])c1cc(Br)c(Br)cc1[n+]2[O-] [Example 6d, 7,8-dibromo-1-(2-ethoxy-2-oxoethoxy)phenazine 5,10-dioxide] | – | – | 1.6 ± 0.09 µM | 2.4 ± 0.03 µM | 9.7 ± 2.4 µM | 10 ± 0.7 µM | 3.3 ± 0.5 µM | 65 µM | 16 µg/mL (≈ 33.9 µM) | 8 µg/mL (≈ 16.9 µM) | –
COc1cccc2c1[n+]([O-])c1cccc(OC(=O)N3CCCC3)c1[n+]2[O-] [Example 8l, 1-methoxy-6-((pyrrolidine-1-carbonyl)oxy)phenazine 5,10-dioxide] | – | – | – | – | – | – | – | – | < 4 µg/mL | 63 µg/mL (≈ 177 µM) | EC50 ([1]; MOLM-13, 2% O2, 24 hours of incubation, read-out: EC50 (μM) MOLM-13 2% O2): 1.8 ± 0.17 µM; EC50 ([1]; MOLM-13, 19% O2, 24 hours of incubation, read-out: EC50 (μM) MOLM-13 19% O2): 2 ± 0.11 µM; EC50 ([2]; 24 h, read-out: EC50 (μM) NRK 2% O2, NRK, 2% O2, 24 hours of incubation): 35 ± 1.5 µM; EC50 ([2]; 24 h, read-out: EC50 (μM) NRK 19% O2, NRK, 19% O2, 24 hours of incubation): 32 ± 2.5 µM; EC50 [3]: 35 ± 3.3 µM; EC50 (hepG2; HepG2, 24 h): 110 µM
C[C@@H](O)[C@H]1C(=O)N2C(C(=O)O)=C(S[C@@H]3CN[C@H](C(=O)N(C)C)C3)[C@H](C)[C@H]12 [MEM, meropenem, reference compound] | – | – | – | – | – | – | – | – | – | – | MIC (A.baumannii/OXA-23): > 64 µg/mL; MIC (E. coli/OXA-48): 1 µg/mL (≈ 2.61 µM); MIC (K. pneumoniae (17A2)): 8 µg/mL (≈ 20.9 µM); MIC (K. pneumoniae/KPC-2): > 64 µg/mL; MIC (K. pneumoniae/NDM-1): 64 µg/mL (≈ 167 µM); MIC (P. aeruginosa (16H5)): > 64 µg/mL; MIC (P. aeruginosa/VIM-2; S3 P. aeruginosa/VIM-2, substance alone): 32 µg/mL (≈ 83.4 µM)
